From US20250304550A1, “BROMODOMAIN AND EXTRA-TERMINAL (BET) SUBFAMILY BROMODOMAIN 1 (BD1) SELECTIVE INHIBITORS AND METHODS USING SAME” (Baylor College of Medicine, priority 2022, published 2025)

Assays:
[1] = Metabolic stability assay in mouse liver microsomes; type: in vitro ADME
[2] = Metabolic stability assay in human liver microsomes; type: in vitro ADME
[3] = target: BRDT-BD1 (Homo sapiens (Human), UniProt Q58F21); test: AlphaScreen bromodomain proximity assay (biotinylated JQ1 competition); type: binding; conditions: for IC50: AlphaScreen; for BRDT-BD1 vs. BRDT-BD2 fold: BD1 selectivity, AlphaScreen IC50 ratio; for fold loss of selectivity BRDT-BD1 over BRDT-BD2: compared to compound 2
[4] = target: BRD4-BD1 (Homo sapiens (Human), UniProt O60885); test: as above; type: binding; conditions: for BRD4-BD1 vs. BRD4-BD2 fold: BD1 selectivity, AlphaScreen IC50 ratio
[5] = test system: BRD4-dependent AML cell lines; test: Cell viability testing (CellTiterGlo, 72 hours) in AML cell lines; type: cell-based
[6] = target: BRDT-BD2 (Homo sapiens (Human), UniProt Q58F21); test: AlphaScreen bromodomain proximity assay (biotinylated JQ1 competition); type: binding; conditions: in Table 4 '—' = not efficient
[7] = target: BRD4-BD2 (Homo sapiens (Human), UniProt O60885); test: as above; type: binding; conditions: in Table 4 '—' = not efficient
[8] = test system: NanoLuc-BET BD1; test: NanoBRET target engagement intracellular BET bromodomain assay in HEK293 cells; type: cell-based, human; conditions: transiently transfected HEK293 cells
[9] = test system: BD2; conditions: background statement; cited from earlier work
[10] = 0.5 mg protein/mL, compound 2.0 μM, NADPH 1.0 mM

| SMILES | IC50 [3] | BRDT-BD1 vs. BRDT-BD2 fold [3] | IC50 ([4]; AlphaScreen) | IC50 [6] | BRD4-BD1 vs. BRD4-BD2 fold [4] | IC50 [7] | further results |
| --- | --- | --- | --- | --- | --- | --- | --- |
| Cc1nnc2n1-c1ccc(Cl)cc1C(c1ccccc1)=NC2 [Alprazolam, reference compound] | – | – | – | – | – | – | MLM t1/2 [1, 10]: 5.03 h; HLM t1/2 [2, 10]: 14.4 h |
| CNC(=O)C(CC1CCN(C(=O)Cc2ccc3[nH]c(=O)cc(C)c3c2)CC1)NC(=O)c1ccc(-c2ccc(C)cc2C)cn1 (centres unmarked) [Compound 1, 5-(2,4-dimethylphenyl)-N-(3-(1-(2-(4-methyl-2-oxo-1,2-dihydroquinolin-6-yl)acetyl)piperidin-4-yl)-1-(methylamino)-1-oxopropan-2-yl)picolinamide] | 5.7 nM | 2246 fold | – | – | – | – | – |
| CNC(=O)[C@H](CC1CCN(C(=O)Cc2ccc3[nH]c(=O)cc(C)c3c2)CC1)NC(=O)c1ccc(-c2ccc(C)cc2C)cn1 [Compound 3, (S)-5-(2,4-dimethylphenyl)-N-(3-(1-(2-(4-methyl-2-oxo-1,2-dihydroquinolin-6-yl)acetyl)piperidin-4-yl)-1-(methylamino)-1-oxopropan-2-yl)picolinamide] | 96.6 nM | 65 fold | – | – | – | – | fold greater affinity for BRD4-BD1 than BRDT-BD1 ([4]; AlphaScreen): 4 fold; cellular potency in AML cell lines (in words) [5]: minimal effect |
| CNC(=O)[C@H](CC1CCN(C(=O)Cc2ccc3[nH]c(=O)cc(C)c3c2)CC1)NC(=O)c1ccc(-c2ccccc2)cn1 [Compound 5, (S)-N-(3-(1-(2-(4-methyl-2-oxo-1,2-dihydroquinolin-6-yl)acetyl)piperidin-4-yl)-1-(methylamino)-1-oxopropan-2-yl)-5-phenylpicolinamide] | – | – | – | – | – | – | cellular potency in AML cell lines (in words) [5]: minimal activity |
| CNC(=O)[C@H](CC1CCN(C(=O)Cc2ccc3[nH]c(=O)cc(C)c3c2)CC1)NC(=O)c1ccc(C(F)(F)F)cn1 [Compound 7, (S)-N-(3-(1-(2-(4-methyl-2-oxo-1,2-dihydroquinolin-6-yl)acetyl)piperidin-4-yl)-1-(methylamino)-1-oxopropan-2-yl)-5-(trifluoromethyl)picolinamide] | 3.8 nM | – | 7.4 nM | – | – | – | – |
| CNC(=O)[C@@H](CC1CCN(C(=O)Cc2ccc3[nH]c(=O)cc(C)c3c2)CC1)NC(=O)c1ccc(-c2ccc(Cl)cc2)cn1 [Compound 8, (R)-5-(4-chlorophenyl)-N-(3-(1-(2-(4-methyl-2-oxo-1,2-dihydroquinolin-6-yl)acetyl)piperidin-4-yl)-1-(methylamino)-1-oxopropan-2-yl)picolinamide] | 5.1 nM | 6,633 fold | 12.8 nM | 33800 nM | 1,553 fold | 19900 nM | – |
| CNC(=O)[C@@H](CC1CCN(C(=O)Cc2ccc3[nH]c(=O)cc(C)c3c2)CC1)NC(=O)c1ccc(-c2ccc(Cl)c(F)c2)cn1 [Compound 9, (R)-5-(4-chloro-3-fluorophenyl)-N-(3-(1-(2-(4-methyl-2-oxo-1,2-dihydroquinolin-6-yl)acetyl)piperidin-4-yl)-1-(methylamino)-1-oxopropan-2-yl)picolinamide] | 4.7 nM | 4,799 fold | 9.8 nM | 22600 nM | 1,423 fold | 14000 nM | – |
| CNC(=O)C(CC1CCN(C(=O)Cc2ccc3[nH]c(=O)cc(C)c3c2)CC1)NC(=O)c1ccccn1 (centres unmarked) [Compound 11, N-(3-(1-(2-(4-methyl-2-oxo-1,2-dihydroquinolin-6-yl)acetyl)piperidin-4-yl)-1-(methylamino)-1-oxopropan-2-yl)picolinamide] | 20.2 nM | 960 fold | 15.7 nM | 19400 nM | 2,078 fold | 32600 nM | fold loss of selectivity BRDT-BD1 over BRDT-BD2 [3]: 5 fold |
| CNC(=O)C(CC1CCN(C(=O)Cc2ccc3[nH]c(=O)cc(C)c3c2)CC1)NC(=O)c1ccc(C(F)(F)F)cn1 (centres unmarked) [Compound 12, N-(3-(1-(2-(4-methyl-2-oxo-1,2-dihydroquinolin-6-yl)acetyl)piperidin-4-yl)-1-(methylamino)-1-oxopropan-2-yl)-5-(trifluoromethyl)picolinamide] | 14 nM | 513 fold | 6.9 nM | 7190 nM | 1,275 fold | 8800 nM | – |
| Cc1ccc(-c2ccc(C(=O)NC(C)CC3CCN(C(=O)Cc4ccc5[nH]c(=O)cc(C)c5c4)CC3)nc2)c(C)c1 (centres unmarked) [Compound 14, 5-(2,4-dimethylphenyl)-N-(1-(1-(2-(4-methyl-2-oxo-1,2-dihydroquinolin-6-yl)acetyl)piperidin-4-yl)propan-2-yl)picolinamide] | 31 nM | 756 fold | 52.4 nM | 23400 nM | 381 fold | 20000 nM | fold loss of selectivity BRDT-BD1 over BRDT-BD2 [3]: 6.5 fold |
| Cc1ccc(-c2ccc(C(=O)NCCC3CCN(C(=O)Cc4ccc5[nH]c(=O)cc(C)c5c4)CC3)nc2)c(C)c1 [Compound 15, 5-(2,4-dimethylphenyl)-N-(2-(1-(2-(4-methyl-2-oxo-1,2-dihydroquinolin-6-yl)acetyl)piperidin-4-yl)ethyl)picolinamide] | 33.7 nM | 2012 fold | 27.8 nM | 67800 nM | 312 fold | 8690 nM | – |
| Cc1cc(=O)[nH]c2ccc(CC(=O)N3CCC(CCNC(=O)c4ccccn4)CC3)cc12 [Compound 16, N-(2-(1-(2-(4-methyl-2-oxo-1,2-dihydroquinolin-6-yl)acetyl)piperidin-4-yl)ethyl)picolinamide] | 35.4 nM | 192 fold | 13.8 nM | 6800 nM | 5,449 fold | 75200 nM | – |
| Cc1cc(=O)[nH]c2ccc(CC(=O)N3CCC(CCNC(=O)c4ccccc4)CC3)cc12 [Compound 17, N-(2-(1-(2-(4-methyl-2-oxo-1,2-dihydroquinolin-6-yl)acetyl)piperidin-4-yl)ethyl)benzamide] | 148 nM | 70 fold | 47.9 nM | 10400 nM | – | – | – |
| Cc1cc(=O)[nH]c2ccc(CC(=O)N3CCC(CCNC(=O)c4ccc5ccccc5n4)CC3)cc12 [Compound 18, N-(2-(1-(2-(4-methyl-2-oxo-1,2-dihydroquinolin-6-yl)acetyl)piperidin-4-yl)ethyl)quinoline-2-carboxamide] | 81.3 nM | – | 122 nM | – | – | – | – |
| Cc1cc(=O)[nH]c2ccc(CC(=O)N3CCC(CCNC(=O)c4cc5ccccc5cn4)CC3)cc12 [Compound 19, N-(2-(1-(2-(4-methyl-2-oxo-1,2-dihydroquinolin-6-yl)acetyl)piperidin-4-yl)ethyl)isoquinoline-3-carboxamide] | 116 nM | – | 119 nM | – | – | – | – |
| Cc1cc(=O)[nH]c2ccc(CC(=O)N3CCC(CCNC(=O)c4nccc5ccccc45)CC3)cc12 [Compound 20, N-(2-(1-(2-(4-methyl-2-oxo-1,2-dihydroquinolin-6-yl)acetyl)piperidin-4-yl)ethyl)isoquinoline-1-carboxamide] | 638 nM | – | 341 nM | – | – | – | – |
| Cc1cc(=O)[nH]c2ccc(CC(=O)N3CCN(CCNC(=O)c4ccccn4)CC3)cc12 [Compound 21, N-(2-(4-(2-(4-methyl-2-oxo-1,2-dihydroquinolin-6-yl)acetyl)piperazin-1-yl)ethyl)picolinamide] | 5200 nM | 13.8 fold | 1300 nM | 71800 nM | – | – | – |
| Cc1sc2c(c1C)C(c1ccc(Cl)cc1)=N[C@@H](CC(=O)OC(C)(C)C)c1nnc(C)n1-2 [JQ1, tert-butyl (S)-2-(4-(4-chlorophenyl)-2,3,9-trimethyl-6H-thieno[3,2-f][1,2,4]triazolo[4,3-a][1,4]diazepin-6-yl)acetate, reference compound] | – | – | – | – | – | – | metabolic stability in mouse liver microsomes (in words) ([1]; mouse, microsomes): labile; half-life in human liver microsomes (in words) ([2]; human, microsomes): quite low; inhibition of tracer binding, BD1 vs BD2 (in words) [8]: binds both BD1 and BD2 equally |
| COc1cc(OC)c2c(=O)[nH]c(-c3cc(C)c(OCCO)c(C)c3)nc2c1 [RVX-208] | – | – | – | – | – | – | BD2 potency [9]: > 100 nM; selectivity over BD1 domains [9]: ~10 fold |
